# Measured values taken from patent US20060069132A1, “Azolecarboxamide herbicides” (priority 2004, published 2006).
# How the values were obtained:
# [1] = test system: barnyardgrass; experiment: Test B pre-/postemergence herbicide test; assay type: in vivo, Echinochloa crus-galli; details: for Barnyardgrass plant response rating: Postemergence, scale 0 (no effect) to 100 (complete control)
# Summary of the method: (§1)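 Greenhouse pot assay with simultaneous preemergence (treated seed) and postemergence (2–18 cm seedlings) applications of surfactant-containing, non-phytotoxic solvent formulations. Response scored visually 13–15 days later on a 0–100 scale, 100 meaning complete control.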
# [2] = test system: lambsquarters; experiment: Test B pre-/postemergence herbicide test; assay type: in vivo, Chenopodium album
# Summary of the method: (§2)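 Visual rating, 0 (no effect) to 100 (complete control), versus untreated controls after 13–15 d in greenhouse. Pre- and postemergence applications (postemergence plants 2–18 cm, 1–4 leaves); flooded paddy arm at 2-leaf stage. Compounds in non-phytotoxic solvent plus surfactant.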
# [3] = test system: giant foxtail; experiment: Test B pre-/postemergence herbicide test; assay type: in vivo, Setaria faberi
# Summary of the method: as §2
# [4] = test system: canarygrass; experiment: Test C postemergence herbicide test; assay type: in vivo, Phalaris minor
# Experimental: (§3) At the same time, plants selected from these crop and weed species and also winter barley (Hordeum vulgare L.), blackgrass (Alopecurus myosuroides Huds.), canarygrass (Phalaris minor Retz.), chickweed (Stellaria media (L.) Vill.), downy bromegrass (Bromus tectorum L.), green foxtail (Setaria viridis (L.) Beauv.), Italian ryegrass (Lolium multiflorum Lam.), wheat (Triticum aestivum L.), wild oat (Avenafatua L.) and windgrass (Apera spica-venti (L.) Beauv.) were treated with postemergence applications of some of the test chemicals formulated in the same manner. Plants ranged in height from 2 to 18 cm (1- to 4-leaf stage) for postemergence treatments. Plant species in the flooded paddy test consisted of rice (Oryza sativa), smallflower umbrella sedge (Cyperus difformis L.), ducksalad (Heteranthera limosa (Sw.) Willd.) and barnyardgrass (Echinochloa crus-galli (L.) Beauv.) grown to the 2-leaf stage for testing. Treated plants and controls were maintained in a greenhouse for 12 to 14 days, after which time all species were compared to controls and visually evaluated. Plant response ratings, summarized in Table C, are based on a scale of 0 to 100 where 0 is no effect and 100 is complete control. A dash (-) response means no test result.
# [5] = test system: wild oat; experiment: Test C postemergence herbicide test; assay type: in vivo, Avenafatua
# Experimental: as §3
# [6] = test system: wheat; experiment: Test C postemergence herbicide test; assay type: in vivo, Triticum aestivum
# Experimental: as §3
# [7] = test system: pigweed; experiment: Test B pre-/postemergence herbicide test; assay type: in vivo, Amaranthus retroflexus
# Summary of the method: as §2
# [8] = test system: Italian ryegrass; experiment: Test C postemergence herbicide test; assay type: in vivo, Lolium multiflorum
# Experimental: as §3
# [9] = test system: blackgrass; experiment: Test B postemergence herbicide test; assay type: in vivo, Alopecurus myosuroides
# Summary of the method: (§4)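 Greenhouse test; postemergence application to plants at 1–4 leaves (2–18 cm); paddy species at 2 leaves; evaluated visually vs controls at 13–15 days; scale 0–100 (100 = complete control).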
# [10] = test system: green foxtail; experiment: Test C postemergence herbicide test; assay type: in vivo, Setaria viridis
# Experimental: as §3
# [11] = test system: ducksalad; experiment: Test B flooded paddy test; assay type: in vivo, Heteranthera limosa; details: 1000 g ai/ha, scale 0 to 100 (0 no effect, 100 complete control)
# Summary of the method: as §4
# [12] = test system: downy bromegrass; experiment: Test C postemergence herbicide test; assay type: in vivo, Bromus tectorum
# Experimental: as §3
# [13] = test system: morningglory; experiment: Test B pre-/postemergence herbicide test; assay type: in vivo, Ipomoea coccinea
# Summary of the method: as §1
# [14] = test system: small flower umbrella sedge; experiment: Test B flooded paddy test; assay type: in vivo, Cyperus difformis; details: 1000 g ai/ha, scale 0 to 100 (0 no effect, 100 complete control)
# Summary of the method: as §4
# [15] = test system: wheat; experiment: Test B postemergence herbicide test; assay type: in vivo, Triticum aestivum; parameters: key to Wheat plant response rating: 0 = no effect, 100 = complete control
# Summary of the method: as §4
# [16] = test system: winter barley; experiment: Test C postemergence herbicide test; assay type: in vivo, Hordeum vulgare
# Experimental: as §3
# [17] = test system: Surinam grass; experiment: Test B pre-/postemergence herbicide test; assay type: in vivo, Urochloa decumbens
# Summary of the method: as §2
# [18] = test system: barnyardgrass; experiment: Test B flooded paddy test; assay type: in vivo, Echinochloa crus-galli; details: 1000 g ai/ha, scale 0 to 100 (0 no effect, 100 complete control)
# Summary of the method: as §4
# [19] = test system: cocklebur; experiment: Test B pre-/postemergence herbicide test; assay type: in vivo, Xanthium strumarium
# Summary of the method: as §1
# [20] = test system: corn; experiment: Test B pre-/postemergence herbicide test; assay type: in vivo, Zea mays
# Summary of the method: as §2
# [21] = test system: large crabgrass; experiment: Test B pre-/postemergence herbicide test; assay type: in vivo, Digitaria sanguinalis
# Summary of the method: as §2
# [22] = test system: blackgrass; experiment: Test C postemergence herbicide test; assay type: in vivo, Alopecurus myosuroides
# Experimental: as §3
# [23] = test system: rice; experiment: Test B flooded paddy test; assay type: in vivo, Oryza sativa; details: 1000 g ai/ha, scale 0 to 100 (0 no effect, 100 complete control)
# Summary of the method: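 Read-out: visual comparison with controls, scored 0 to 100, where 100 means complete control and 0 no effect. Formulated chemicals were applied postemergence to plants 2–18 cm tall (1- to 4-leaf), or to flooded-paddy plants at the 2-leaf stage, then held 13 to 15 days under glass.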
# [24] = test system: velvetleaf; experiment: Test B pre-/postemergence herbicide test; assay type: in vivo, Abutilon theophrasti
# Summary of the method: as §2
# [25] = test system: windgrass; experiment: Test C postemergence herbicide test; assay type: in vivo, Apera spica-venti
# Experimental: as §3
# [26] = test system: wild oat; experiment: Test B postemergence herbicide test; assay type: in vivo, Avena fatua
# Summary of the method: as §4
# [27] = 125 g ai/ha, 0 is no effect, 100 is complete control, preemergence
# [28] = Postemergence, 500 g ai/ha, scale 0 (no effect) to 100 (complete control)
# [29] = postemergence, 125 g ai/ha, scale 0 to 100
# [30] = Postemergence, 250 g ai/ha, scale 0 to 100, 0 no effect, 100 complete control
# [31] = Postemergence, 500 g ai/ha, scale 0 to 100, 0 no effect, 100 complete control
# [32] = postemergence, 62 g ai/ha, scale 0 to 100
# [33] = Postemergence, 500 g ai/ha, scale 0 to 100
smiles,measurement,setting,value
C=CCN(CC=C)C(=O)c1cccc(NC(=O)c2nn(C(C)(C)C)nc2CC)c1 [Compound 415],"Plant response rating (0 to 100 scale), Barnyardgrass",[1]; [27],10
same,Barnyardgrass plant response rating,[1]; 125 g ai/ha,20
same,Barnyardgrass plant response rating,[1]; 500 g ai/ha,20
same,"Plant response rating (0 to 100 scale), Lambsquarters",[2]; [27],50
same,Lambsquarters plant response rating,[2]; [28],80
same,Lambsquarters plant response rating,[2]; [29],70
same,"Plant response rating (0 to 100 scale), Foxtail, Giant",[3]; [27],20
same,"Foxtail, Giant plant response rating",[3]; [28],40
same,"Foxtail, Giant plant response rating",[3]; [29],20
same,"Plant response rating, Canarygrass",[4]; [30],55
same,"Plant response rating, Canarygrass",[4]; [31],65
same,"Plant response rating, Canarygrass",[4]; [29],50
same,"Plant response rating, Canarygrass",[4]; [32],45
same,"Plant response rating, Oat, Wild",[5]; [31],55
same,"Plant response rating, Oat, Wild",[5]; [29],45
same,"Plant response rating, Oat, Wild",[5]; [32],40
same,"Plant response rating, Wheat",[6]; [31],30
same,"Plant response rating, Wheat",[6]; [29],25
same,"Plant response rating, Wheat",[6]; [32],20
same,"Plant response rating (0 to 100 scale), Pigweed",[7]; [27],60
same,Pigweed plant response rating,[7]; [28],90
same,Pigweed plant response rating,[7]; [29],70
same,"Plant response rating, Ryegrass, Italian",[8]; [31],45
same,"Plant response rating, Ryegrass, Italian",[8]; [29],40
same,"Plant response rating, Ryegrass, Italian",[8]; [32],30
same,Blackgrass plant response rating,[9]; [28],40
same,Blackgrass plant response rating,[9]; [29],30
same,"Plant response rating, Foxtail, Green",[10]; [30],50
same,"Plant response rating, Foxtail, Green",[10]; [31],60
same,"Plant response rating, Foxtail, Green",[10]; [29],50
same,"Plant response rating, Foxtail, Green",[10]; [32],45
same,Ducksalad plant response rating,[11],80
same,"Plant response rating, Bromegrass, Downy",[12]; [30],60
same,"Plant response rating, Bromegrass, Downy",[12]; [31],65
same,"Plant response rating, Bromegrass, Downy",[12]; [29],60
same,"Plant response rating, Bromegrass, Downy",[12]; [32],60
same,"Plant response rating (0 to 100 scale), Morningglory",[13]; [27],0
same,Morningglory plant response rating,[13]; [28],40
same,Morningglory plant response rating,[13]; [29],10
same,"Sedge, Umbrella plant response rating",[14],80
same,Wheat plant response rating,"[15]; 500 g ai/ha, scale 0 to 100, 0 no effect, 100 complete control, preemergence",30
same,Wheat plant response rating,[15]; [28],30
same,Wheat plant response rating,[15]; [29],20
same,"Barley, Winter plant response rating",[16]; [33],45
same,"Plant response rating, Barley, Winter","[16]; Postemergence, 125 g ai/ha, scale 0 to 100, 0 no effect, 100 complete control",35
same,"Plant response rating, Barley, Winter",[16]; [30],35
same,"Plant response rating, Barley, Winter","[16]; postemergence, 62 g ai/ha, scale 0 to 100 (0 no effect, 100 complete control)",35
same,"Plant response rating (0 to 100 scale), Surinam Grass",[17]; [27],20
same,Surinam Grass plant response rating,[17]; [28],30
same,Surinam Grass plant response rating,[17]; [29],10
same,Barnyardgrass plant response rating,[18],60
same,"Plant response rating (0 to 100 scale), Cocklebur",[19]; [27],0
same,Cocklebur plant response rating,[19]; [28],50
same,Cocklebur plant response rating,[19]; [29],30
same,"Plant response rating (0 to 100 scale), Corn",[20]; [27],0
same,Corn plant response rating,[20]; [28],20
same,Corn plant response rating,[20]; [29],20
same,"Plant response rating (0 to 100 scale), Crabgrass, Large",[21]; [27],70
same,"Crabgrass, Large plant response rating",[21]; [28],50
same,"Crabgrass, Large plant response rating",[21]; [29],20
same,Blackgrass plant response rating,[22]; [33],65
same,"Plant response rating, Blackgrass",[22]; [30],60
same,"Plant response rating, Blackgrass",[22]; [29],60
same,"Plant response rating, Blackgrass",[22]; [32],50
same,Rice plant response rating,[23],50
same,"Plant response rating (0 to 100 scale), Velvetleaf",[24]; [27],20
same,Velvetleaf plant response rating,[24]; [28],50
same,Velvetleaf plant response rating,[24]; [29],30
same,"Plant response rating, Windgrass",[25]; [31],65
same,"Plant response rating, Windgrass",[25]; [29],50
same,"Plant response rating, Windgrass",[25]; [32],50
same,"Oat, Wild plant response rating",[26]; [28],40
same,"Oat, Wild plant response rating",[26]; [29],30
